Results reported in ChEMBL document CHEMBL1681708, “The synthesis and structure-activity relationship of pyridazinones as glucan synthase inhibitors” (Bioorg Med Chem Lett, 2011).
In brackets after ≈: the same amount, converted by molar mass.

Legend:
Beta-1,3-glucan synthase = target: T1, Beta-1,3-glucan synthase (Candida albicans, UniProt O13383); assay: Inhibition of Candida albicans BWP17 1,3-beta-D-glucan synthase
T1 sequence (O13383 whole entry): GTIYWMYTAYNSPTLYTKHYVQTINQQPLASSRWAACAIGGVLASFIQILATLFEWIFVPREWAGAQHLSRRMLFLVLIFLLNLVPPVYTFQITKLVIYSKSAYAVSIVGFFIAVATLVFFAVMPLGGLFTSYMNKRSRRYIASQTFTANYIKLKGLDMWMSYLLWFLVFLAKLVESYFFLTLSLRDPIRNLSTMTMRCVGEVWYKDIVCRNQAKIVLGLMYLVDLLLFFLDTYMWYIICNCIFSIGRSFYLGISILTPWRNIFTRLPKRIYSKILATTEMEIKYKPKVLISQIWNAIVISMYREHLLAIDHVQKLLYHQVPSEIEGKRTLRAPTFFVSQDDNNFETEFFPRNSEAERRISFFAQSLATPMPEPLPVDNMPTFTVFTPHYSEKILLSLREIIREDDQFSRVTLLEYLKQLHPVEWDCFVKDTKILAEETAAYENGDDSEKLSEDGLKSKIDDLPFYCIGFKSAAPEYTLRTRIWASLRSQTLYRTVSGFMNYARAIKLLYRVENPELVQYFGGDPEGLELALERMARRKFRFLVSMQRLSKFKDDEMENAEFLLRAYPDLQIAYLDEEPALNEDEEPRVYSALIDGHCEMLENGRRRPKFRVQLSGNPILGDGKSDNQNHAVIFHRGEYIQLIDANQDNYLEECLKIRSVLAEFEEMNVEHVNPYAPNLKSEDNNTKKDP

Nakaseomyces glabratus = assay: Antifungal activity against Candida glabrata C624 by broth dilution method; type: functional; settings: read-out: MIC100
Candida albicans = assay: Antifungal activity against Candida albicans C693 by broth dilution method; type: functional; settings: for MIC: read-out: MIC100
Aspergillus fumigatus = assay: Antifungal activity against Aspergillus fumigatus ND158 by broth dilution method; type: functional; settings: read-out: MEC
[1] = AUC (0 to 6 hrs) in rat at 10 mg/kg, po administered with methylcellulose; type: ADME, organism-based; parameters: time < 6 hr, dose 10 mg/kg, route oral; settings: in vivo
Cytochrome P450 2D6 = Cytochrome P450 2D6 (Homo sapiens, UniProt P10635); assay: Inhibition of CYP2D6 at 30 uM; type: ADME
Cytochrome P450 3A4 = Cytochrome P450 3A4 (Homo sapiens, UniProt P08684); assay: Inhibition of CYP3A4 at 30 uM; type: ADME
Cytochrome P450 2C9 = Cytochrome P450 2C9 (Homo sapiens, UniProt P11712); assay: Inhibition of CYP2C9 at 30 uM; type: ADME
hERG (KCNH2) = hERG (KCNH2) (Homo sapiens, UniProt Q12809); assay: Inhibition of human ERG at 1 uM by patch clamp assay
[2] = AUC (0 to 8 hrs) in dog at 2 mg/kg, po administered with methylcellulose and HPBCD; type: ADME, organism-based, Canis lupus familiaris; parameters: time < 8 hr, dose 2 mg/kg, route oral; settings: in vivo
Hepatocyte [3] = assay: Clearance in human hepatocytes measured per molar mass of cells; type: ADME, cell-based, Liver
Hepatocyte [4] = assay: Clearance in rat hepatocytes measured per molar mass of cells; type: ADME, cell-based, Liver
[5] = Clearance in dog hepatocytes measured per molar mass of cells; type: ADME, cell-based, Canis lupus familiaris, Liver, Hepatocyte
Candida glabrata [6] = assay: Antifungal activity against Candida glabrata C624 infected in immunocompromized mouse assessed as log10 reduction in CFU in kidney at 30 mg/kg, poqd for seven days (reference value: 4.28 log10 CFU)
Candida glabrata [7] = assay: Antifungal activity against Candida glabrata C624 infected in immunocompromized mouse assessed as log10 reduction in CFU in kidney at 10 mg/kg, poqd for seven days (reference value: 4.28 log10 CFU)

Chain of Cytochrome P450 2C9 (P11712 whole entry): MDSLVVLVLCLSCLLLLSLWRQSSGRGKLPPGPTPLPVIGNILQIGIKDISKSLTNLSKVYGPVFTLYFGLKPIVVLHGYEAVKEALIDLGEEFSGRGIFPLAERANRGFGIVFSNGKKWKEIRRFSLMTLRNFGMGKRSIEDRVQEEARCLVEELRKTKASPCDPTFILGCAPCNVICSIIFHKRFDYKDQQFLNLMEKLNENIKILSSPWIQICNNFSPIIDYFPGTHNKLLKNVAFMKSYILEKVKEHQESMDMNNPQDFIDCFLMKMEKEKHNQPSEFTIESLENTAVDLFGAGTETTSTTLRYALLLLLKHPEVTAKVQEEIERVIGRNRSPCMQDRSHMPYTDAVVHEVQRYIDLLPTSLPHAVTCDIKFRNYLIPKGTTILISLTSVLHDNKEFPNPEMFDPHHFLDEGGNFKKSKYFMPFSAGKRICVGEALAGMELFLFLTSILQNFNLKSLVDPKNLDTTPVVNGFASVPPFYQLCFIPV
Chain of hERG (KCNH2) (Q12809 whole entry): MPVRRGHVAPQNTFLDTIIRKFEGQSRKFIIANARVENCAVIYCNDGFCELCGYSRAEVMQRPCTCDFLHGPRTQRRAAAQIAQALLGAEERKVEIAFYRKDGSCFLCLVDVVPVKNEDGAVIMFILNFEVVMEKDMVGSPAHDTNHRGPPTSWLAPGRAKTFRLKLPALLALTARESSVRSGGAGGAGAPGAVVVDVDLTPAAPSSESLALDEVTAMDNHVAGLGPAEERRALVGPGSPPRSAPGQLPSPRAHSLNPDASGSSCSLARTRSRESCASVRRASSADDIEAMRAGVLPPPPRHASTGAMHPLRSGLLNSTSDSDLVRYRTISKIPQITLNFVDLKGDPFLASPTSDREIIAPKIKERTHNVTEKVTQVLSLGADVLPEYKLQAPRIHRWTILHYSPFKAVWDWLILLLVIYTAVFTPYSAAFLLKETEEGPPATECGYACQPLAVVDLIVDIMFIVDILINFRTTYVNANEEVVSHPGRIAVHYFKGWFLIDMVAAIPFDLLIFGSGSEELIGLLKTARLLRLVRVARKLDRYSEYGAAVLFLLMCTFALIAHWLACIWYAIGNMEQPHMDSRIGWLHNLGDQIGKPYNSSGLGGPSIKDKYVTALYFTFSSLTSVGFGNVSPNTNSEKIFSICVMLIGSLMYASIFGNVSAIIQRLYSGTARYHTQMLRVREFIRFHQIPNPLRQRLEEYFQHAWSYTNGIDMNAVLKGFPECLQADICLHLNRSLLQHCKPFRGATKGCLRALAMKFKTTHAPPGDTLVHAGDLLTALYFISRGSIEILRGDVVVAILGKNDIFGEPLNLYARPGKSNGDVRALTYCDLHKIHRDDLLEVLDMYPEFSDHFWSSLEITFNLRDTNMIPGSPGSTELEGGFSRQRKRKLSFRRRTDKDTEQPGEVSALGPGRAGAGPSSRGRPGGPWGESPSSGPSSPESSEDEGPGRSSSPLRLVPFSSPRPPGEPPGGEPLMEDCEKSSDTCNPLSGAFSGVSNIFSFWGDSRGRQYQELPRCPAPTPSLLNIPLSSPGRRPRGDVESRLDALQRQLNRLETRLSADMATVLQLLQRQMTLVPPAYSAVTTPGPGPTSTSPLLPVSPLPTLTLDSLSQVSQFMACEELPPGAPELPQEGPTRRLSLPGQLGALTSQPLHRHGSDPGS
Chain of Cytochrome P450 3A4 (P08684 whole entry): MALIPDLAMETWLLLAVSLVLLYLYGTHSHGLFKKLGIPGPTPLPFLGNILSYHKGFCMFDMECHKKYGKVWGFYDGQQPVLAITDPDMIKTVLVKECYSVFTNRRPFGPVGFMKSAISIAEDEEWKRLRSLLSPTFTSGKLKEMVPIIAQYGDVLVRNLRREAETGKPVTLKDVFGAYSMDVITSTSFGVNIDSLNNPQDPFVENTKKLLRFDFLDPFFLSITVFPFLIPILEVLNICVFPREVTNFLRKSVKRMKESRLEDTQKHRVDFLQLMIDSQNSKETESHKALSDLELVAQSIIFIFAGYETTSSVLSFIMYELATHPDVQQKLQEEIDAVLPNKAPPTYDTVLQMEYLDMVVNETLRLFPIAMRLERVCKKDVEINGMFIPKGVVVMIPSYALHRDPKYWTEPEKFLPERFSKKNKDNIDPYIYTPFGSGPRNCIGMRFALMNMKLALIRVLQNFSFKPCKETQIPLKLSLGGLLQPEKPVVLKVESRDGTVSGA
Chain of Cytochrome P450 2D6 (P10635 whole entry): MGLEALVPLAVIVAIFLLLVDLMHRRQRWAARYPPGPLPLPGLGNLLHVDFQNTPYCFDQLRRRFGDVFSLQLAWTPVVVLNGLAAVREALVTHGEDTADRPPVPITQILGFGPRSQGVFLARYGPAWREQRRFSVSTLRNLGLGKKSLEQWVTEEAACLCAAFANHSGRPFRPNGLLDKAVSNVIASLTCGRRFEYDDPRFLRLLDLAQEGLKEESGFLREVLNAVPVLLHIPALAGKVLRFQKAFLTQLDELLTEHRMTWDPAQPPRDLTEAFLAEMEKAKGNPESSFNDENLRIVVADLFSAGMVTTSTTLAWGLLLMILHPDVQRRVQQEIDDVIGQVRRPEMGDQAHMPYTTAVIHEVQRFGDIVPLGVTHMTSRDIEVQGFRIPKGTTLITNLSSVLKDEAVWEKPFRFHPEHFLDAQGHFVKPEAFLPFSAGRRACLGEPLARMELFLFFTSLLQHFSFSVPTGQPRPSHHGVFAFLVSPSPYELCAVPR

Structure (SMILES) | IC50 (Beta-1,3-glucan synthase) [nM] | MIC (Nakaseomyces glabratus) [µg/mL] | MIC (Candida albicans) [µg/mL] | further results
O=c1c(OC2CCCCC2)c(N2CCN(S(=O)(=O)Cc3ccccc3)CC2)cnn1-c1ccccc1 | 1040 | 0.05 (≈ 0.0983 µM) | 0.78 (≈ 1.53 µM) | –
CCOCCOc1c(N2CCN(S(=O)(=O)Cc3ccccc3)CC2)cnn(-c2ccccc2)c1=O | 1810 | 0.1 (≈ 0.201 µM) | 3.1 (≈ 6.22 µM) | –
CCOCCCNc1c(N2CCN(S(=O)(=O)Cc3ccccc3)CC2)cnn(-c2ccccc2)c1=O | 4500 | 0.78 (≈ 1.52 µM) | > 50 | –
CCCCCCCSc1c(N2CCN(S(=O)(=O)Cc3ccccc3)CC2)cnn(-c2ccccc2)c1=O | 2030 | 0.78 (≈ 1.44 µM) | – | MIC50 (Candida albicans): 3.1 µg/mL (≈ 5.73 µM)
CCCCCCC[S+]([O-])c1c(N2CCN(S(=O)(=O)Cc3ccccc3)CC2)cnn(-c2ccccc2)c1=O (stereo not drawn) | 5390 | 0.59 (≈ 1.06 µM) | 25 (≈ 44.9 µM) | –
O=c1c(C2CCCCC2)c(N2CCN(S(=O)(=O)Cc3ccccc3)CC2)cnn1-c1ccccc1 | 4470 | > 20 | > 20 | –
O=c1c(OC2CCCCC2)c(N2CC3CC2CN3S(=O)(=O)Cc2ccccc2)cnn1-c1ccccc1 (stereo not drawn) | > 19200 | > 50 | > 50 | –
C[C@H]1CN(c2cnn(-c3ccccc3)c(=O)c2OC2CCCCC2)CCN1S(=O)(=O)Cc1ccccc1 | 8230 | 0.39 (≈ 0.746 µM) | – | MIC50 (Candida albicans): 2 µg/mL (≈ 3.83 µM)
O=c1c(OC2CCCC2)c(N2CCN(S(=O)(=O)c3ccccc3)CC2)cnn1-c1ccccc1 | > 20800 | 0.15 (≈ 0.312 µM) | – | MIC50 (Candida albicans): 0.78 µg/mL (≈ 1.62 µM)
CCCCCCCS(=O)(=O)c1c(N2CCN(S(=O)(=O)Cc3ccccc3)CC2)cnn(-c2ccccc2)c1=O | > 17500 | 1.6 (≈ 2.79 µM) | > 50 | –
O=c1c(OC2CCCC2)c(N2CCN(S(=O)(=O)Cc3cccnc3)CC2)cnn1-c1ccccc1 | 404 | 0.13 (≈ 0.262 µM) | 8.4 (≈ 16.9 µM) | –
C[C@@H]1CN(c2cnn(-c3ccccc3)c(=O)c2OC2CCCCC2)CCN1S(=O)(=O)Cc1ccccc1 | 5360 | 0.78 (≈ 1.49 µM) | – | MIC50 (Candida albicans): 19 µg/mL (≈ 36.4 µM)
CCCCCCCOc1c(N2CCN(S(=O)(=O)Cc3ccccc3)CC2)cnn(-c2ccccc2)c1=O | 229 | < 0.1 | 0.78 (≈ 1.49 µM) | –
O=c1c(N2CCOCC2)c(N2CCN(S(=O)(=O)Cc3ccccc3)CC2)cnn1-c1ccccc1 | 9280 | 0.39 (≈ 0.787 µM) | > 50 | –
CCCCCCCc1c(N2CCN(S(=O)(=O)Cc3ccccc3)CC2)cnn(-c2ccccc2)c1=O | 2950 | 0.78 (≈ 1.53 µM) | > 50 | –
CC1CN(S(=O)(=O)Cc2ccccc2)CCN1c1cnn(-c2ccccc2)c(=O)c1OC1CCCCC1 (stereo not drawn) | 4210 | 0.39 (≈ 0.746 µM) | 6.3 (≈ 12.1 µM) | –
O=c1c(OC2CCCC2)c(N2CCN(S(=O)(=O)Cc3ccccc3)CC2)cnn1-c1ccccc1 | 364 | 0.03 (≈ 0.0607 µM) | 0.26 (≈ 0.526 µM) | –
O=c1c(OC2CCCC2)c(N2CCN(S(=O)(=O)Cc3ccccn3)CC2)cnn1-c1ccccc1 | 1190 | 0.06 (≈ 0.121 µM) | 8.4 (≈ 16.9 µM) | –

Further lines, with some results ahead:

IC50 (Beta-1,3-glucan synthase) [nM] | MIC (Nakaseomyces glabratus) [µg/mL] | MIC (Candida albicans) [µg/mL] | Structure (SMILES) | further results
2200 | 0.78 (≈ 1.56 µM) | 6.3 (≈ 12.6 µM) | CC(C)S(=O)(=O)N1CCN(c2cnn(-c3cccc(F)c3)c(=O)c2OC2CCC(F)(F)C2)CC1 (stereo not drawn) | minimal effective concentration (Aspergillus fumigatus): 3.1 µg/mL; AUC(0-t) at 6 h [1]: 470 ng·h/mL
870 | 0.13 (≈ 0.269 µM) | 16.7 (≈ 34.6 µM) | CC(C)S(=O)(=O)N1CCN(c2cnn(-c3cccc(F)c3)c(=O)c2OC2CCC(F)C2)CC1 (racemic) | minimal effective concentration (Aspergillus fumigatus): 4.2 µg/mL; AUC(0-t) at 6 h [1]: 300 ng·h/mL
5260 | 0.63 (≈ 1.51 µM) | > 20 | CS(=O)(=O)N1CCN(c2cnn(-c3ccccc3)c(=O)c2OC2CCCC2)CC1 | –
> 22000 | 8.4 (≈ 18.5 µM) | > 20 | CC(C)S(=O)(=O)N1CCN(c2cnn(-c3nccs3)c(=O)c2OC2CCCC2)CC1 | –
1950 | 2.5 (≈ 5.4 µM) | > 20 | CC(C)S(=O)(=O)N1CCN(c2cnn(-c3cccc(O)c3)c(=O)c2OC2CCCC2)CC1 | –
2150 | 0.1 (≈ 0.215 µM) | 6.3 (≈ 13.6 µM) | CC(C)S(=O)(=O)N1CCN(c2cnn(-c3cccc(F)c3)c(=O)c2OC2CCCC2)CC1 | minimal effective concentration (Aspergillus fumigatus): 1.6 µg/mL; AUC(0-t) at 6 h [1]: 670 ng·h/mL
501 | 0.06 (≈ 0.12 µM) | 6.3 (≈ 12.6 µM) | CC(C)S(=O)(=O)N1CCN(c2cnn(-c3cc(F)cc(Cl)c3)c(=O)c2OC2CCCC2)CC1 | AUC(0-t) at 6 h [1]: 490 ng·h/mL
3810 | 0.2 (≈ 0.448 µM) | – | CC(C)S(=O)(=O)N1CCN(c2cnn(-c3ccccc3)c(=O)c2OC2CCCC2)CC1 | MIC50 (Candida albicans): 25 µg/mL (≈ 56 µM); AUC(0-t) at 6 h [1]: 1600 ng·h/mL
13600 | 1.6 (≈ 3.57 µM) | > 50 | CC(C)S(=O)(=O)N1CCN(c2cnn(-c3cccnc3)c(=O)c2OC2CCCC2)CC1 | –
2700 | 0.63 (≈ 1.31 µM) | 5 (≈ 10.4 µM) | O=c1c(OC2CCCC2)c(N2CCN(S(=O)(=O)c3ccccn3)CC2)cnn1-c1ccccc1 | –
1280 | 0.4 (≈ 0.829 µM) | 6.3 (≈ 13.1 µM) | CC(C)S(=O)(=O)N1CCN(c2cnn(-c3cc(F)cc(F)c3)c(=O)c2OC2CCCC2)CC1 | –
4120 | 25 (≈ 54.2 µM) | > 50 | CC(C)S(=O)(=O)N1CCN(c2cnn(-c3cccc(N)c3)c(=O)c2OC2CCCC2)CC1 | –
504 | 0.2 (≈ 0.388 µM) | 3.1 (≈ 6.01 µM) | CC(C)S(=O)(=O)N1CCN(c2cnn(-c3cc(Cl)cc(Cl)c3)c(=O)c2OC2CCCC2)CC1 | –
1080 | 0.1 (≈ 0.208 µM) | 3.1 (≈ 6.44 µM) | CC(C)S(=O)(=O)N1CCN(c2cnn(-c3cccc(Cl)c3)c(=O)c2OC2CCCC2)CC1 | AUC(0-t) at 6 h [1]: 490 ng·h/mL
1160 | 0.05 (≈ 0.0964 µM) | 12.5 (≈ 24.1 µM) | CC(C)S(=O)(=O)N1CCN(c2cnn(-c3cc(F)cc(F)c3)c(=O)c2OC2CCC(F)(F)C2)CC1 (stereo not drawn) | minimal effective concentration (Aspergillus fumigatus): 3.1 µg/mL; AUC(0-t) at 6 h [1]: 440 ng·h/mL
19400 | 0.78 (≈ 1.72 µM) | > 50 | CC(C)S(=O)(=O)N1CCN(c2cnn(C3CCCCC3)c(=O)c2OC2CCCC2)CC1 | –
1240 | 0.1 (≈ 0.2 µM) | 6.3 (≈ 12.6 µM) | CC(C)S(=O)(=O)N1CCN(c2cnn(-c3cc(F)cc(F)c3)c(=O)c2OC2CCC(F)C2)CC1 (racemic) | minimal effective concentration (Aspergillus fumigatus): 1.6 µg/mL; AUC(0-t) at 6 h [1]: 2100 ng·h/mL; inhibition (INH) (Cytochrome P450 2D6): Not Active; inhibition (INH) (Cytochrome P450 3A4): Not Active; inhibition (INH) (Cytochrome P450 2C9): Not Active; inhibition at 1 µM (hERG (KCNH2)): 22%; AUC(0-t) at 8 h [2]: 3500 ng·h/mL; CL (Hepatocyte [3]): 1 µL/min; CL (Hepatocyte [4]): 2.4 µL/min; CL [5]: 1.7 µL/min; log10cfu (Candida glabrata [6]): 1.3; log10cfu (Candida glabrata [7]): 4.16
